Laboratory results from the NIST ThermoML archive (doi:10.1016/j.jct.2004.10.011).
Numbers after ± are expanded uncertainties.

Assay: xn = mol fraction of the nth substance listed
Details: 328.15 K, Liquid, Vibrating tube method

CCC(=O)c1ccccc1 [ethyl phenyl ketone] + Cc1ccccc1
mass density [kg/m3]
Details	x2 = 0	x2 = 0.1048	x2 = 0.2025	x2 = 0.3006	x2 = 0.3991	x2 = 0.4998	x2 = 0.6004	x2 = 0.7036	x2 = 0.8028	x2 = 0.902
100 kPa	979.6 ± 0.56	967.8 ± 0.51	956.5 ± 0.47	944.4 ± 0.43	931.4 ± 0.4	917.54 ± 0.37	902.56 ± 0.34	886.7 ± 0.33	870.2 ± 0.31	852.8 ± 0.31
2130 kPa	981.1 ± 0.55	969.1 ± 0.51	957.8 ± 0.47	945.7 ± 0.43	932.8 ± 0.39	918.96 ± 0.36	904.06 ± 0.33	888.3 ± 0.31	871.8 ± 0.3	854.5 ± 0.29
4150 kPa	982.4 ± 0.55	970.5 ± 0.51	959.2 ± 0.47	947.1 ± 0.43	934.3 ± 0.39	920.45 ± 0.36	905.6 ± 0.34	889.9 ± 0.32	873.5 ± 0.3	856.2 ± 0.29
6180 kPa	983.7 ± 0.55	971.8 ± 0.51	960.5 ± 0.47	948.5 ± 0.43	935.7 ± 0.39	921.95 ± 0.36	907.14 ± 0.34	891.5 ± 0.31	875.1 ± 0.3	857.9 ± 0.3
8210 kPa	985 ± 0.55	973.1 ± 0.51	961.8 ± 0.47	949.9 ± 0.43	937.1 ± 0.39	923.37 ± 0.36	908.63 ± 0.34	893 ± 0.31	876.7 ± 0.3	859.6 ± 0.3
10230 kPa	986.2 ± 0.55	974.5 ± 0.51	963.2 ± 0.47	951.2 ± 0.43	938.5 ± 0.39	924.82 ± 0.36	910.11 ± 0.34	894.5 ± 0.31	878.3 ± 0.3	861.2 ± 0.29
11250 kPa	986.9 ± 0.55	975.1 ± 0.51	963.8 ± 0.47	951.9 ± 0.43	939.2 ± 0.4	925.52 ± 0.36	910.85 ± 0.34	895.3 ± 0.32	879 ± 0.3	862 ± 0.3
12260 kPa	987.5 ± 0.55	975.7 ± 0.51	964.5 ± 0.47	952.5 ± 0.43	939.9 ± 0.4	926.2 ± 0.37	911.57 ± 0.34	896 ± 0.32	879.8 ± 0.31	862.8 ± 0.31
14290 kPa	988.7 ± 0.55	977 ± 0.51	965.8 ± 0.47	953.9 ± 0.43	941.2 ± 0.4	927.61 ± 0.37	913.02 ± 0.34	897.5 ± 0.32	881.4 ± 0.31	864.5 ± 0.31
16310 kPa	990 ± 0.55	978.3 ± 0.51	967.1 ± 0.47	955.2 ± 0.43	942.6 ± 0.4	928.98 ± 0.37	914.44 ± 0.34	898.9 ± 0.32	882.9 ± 0.31	866 ± 0.31
18340 kPa	991.2 ± 0.55	979.5 ± 0.51	968.3 ± 0.47	956.5 ± 0.43	943.9 ± 0.4	930.34 ± 0.37	915.83 ± 0.34	900.4 ± 0.32	884.4 ± 0.31	867.6 ± 0.31
20370 kPa	992.3 ± 0.55	980.8 ± 0.51	969.6 ± 0.47	957.7 ± 0.43	945.2 ± 0.4	931.69 ± 0.37	917.22 ± 0.34	901.8 ± 0.32	885.8 ± 0.31	869.1 ± 0.31
22390 kPa	993.5 ± 0.55	982 ± 0.51	970.8 ± 0.47	959 ± 0.43	946.5 ± 0.4	933.04 ± 0.37	918.61 ± 0.34	903.2 ± 0.33	887.3 ± 0.32	870.6 ± 0.31
24420 kPa	994.7 ± 0.55	983.2 ± 0.51	972 ± 0.47	960.2 ± 0.43	947.7 ± 0.4	934.34 ± 0.37	919.95 ± 0.34	904.6 ± 0.33	888.7 ± 0.32	872 ± 0.32
26450 kPa	995.9 ± 0.56	984.4 ± 0.51	973.2 ± 0.47	961.5 ± 0.43	949 ± 0.4	935.61 ± 0.37	921.26 ± 0.35	905.9 ± 0.33	890.1 ± 0.32	873.5 ± 0.32
28470 kPa	997.1 ± 0.55	985.6 ± 0.51	974.5 ± 0.47	962.7 ± 0.43	950.2 ± 0.4	936.91 ± 0.37	922.59 ± 0.35	907.2 ± 0.33	891.5 ± 0.32	874.9 ± 0.33
29490 kPa	997.6 ± 0.55	986.2 ± 0.51	975 ± 0.47	963.3 ± 0.43	950.8 ± 0.4	937.56 ± 0.37	923.26 ± 0.35	908 ± 0.33	892.2 ± 0.33	875.7 ± 0.33
30500 kPa	998.2 ± 0.55	986.7 ± 0.51	975.6 ± 0.47	963.9 ± 0.43	951.5 ± 0.4	938.18 ± 0.37	923.89 ± 0.35	908.6 ± 0.33	892.9 ± 0.33	876.4 ± 0.33
32530 kPa	999.3 ± 0.55	987.9 ± 0.51	976.8 ± 0.47	965.1 ± 0.43	952.7 ± 0.4	939.41 ± 0.37	925.17 ± 0.35	909.9 ± 0.33	894.2 ± 0.33	877.7 ± 0.33
34550 kPa	1000.4 ± 0.56	989 ± 0.51	978 ± 0.47	966.2 ± 0.43	953.9 ± 0.4	940.65 ± 0.37	926.43 ± 0.35	911.2 ± 0.34	895.6 ± 0.33	879.1 ± 0.34
36580 kPa	1001.5 ± 0.56	990.2 ± 0.51	979.1 ± 0.47	967.4 ± 0.43	955.1 ± 0.4	941.85 ± 0.37	927.68 ± 0.35	912.5 ± 0.34	896.9 ± 0.33	880.4 ± 0.34
38600 kPa	1002.6 ± 0.56	991.3 ± 0.51	980.3 ± 0.47	968.6 ± 0.43	956.2 ± 0.4	943.07 ± 0.37	928.95 ± 0.35	913.7 ± 0.34	898.2 ± 0.33	881.8 ± 0.34
39620 kPa	1003.2 ± 0.56	991.9 ± 0.5	980.8 ± 0.46	969.1 ± 0.42	956.9 ± 0.39	943.64 ± 0.36	929.53 ± 0.34	914.4 ± 0.32	898.8 ± 0.32	882.4 ± 0.33
